Data reported in publication PMC4775402 (Pharmacological research, 2016).
Where a name gives a salt, the structure may show the parent alone. Values belong to the compound of their own block, whether it stands above or below them.

What was measured:
ΔPDZ C3AR1 = ΔPDZ C3AR1 (Homo sapiens, UniProt Q16581); test: Label-free DMR agonist response, HEK293T expressing ΔPDZ C3AR1; type: cell-based
WT C3AR1 = WT C3AR1 (Homo sapiens, UniProt Q16581); test: Label-free DMR agonist response, HEK293T expressing WT C3AR1; type: cell-based
Sequence of WT C3AR1 (Q16581 whole entry): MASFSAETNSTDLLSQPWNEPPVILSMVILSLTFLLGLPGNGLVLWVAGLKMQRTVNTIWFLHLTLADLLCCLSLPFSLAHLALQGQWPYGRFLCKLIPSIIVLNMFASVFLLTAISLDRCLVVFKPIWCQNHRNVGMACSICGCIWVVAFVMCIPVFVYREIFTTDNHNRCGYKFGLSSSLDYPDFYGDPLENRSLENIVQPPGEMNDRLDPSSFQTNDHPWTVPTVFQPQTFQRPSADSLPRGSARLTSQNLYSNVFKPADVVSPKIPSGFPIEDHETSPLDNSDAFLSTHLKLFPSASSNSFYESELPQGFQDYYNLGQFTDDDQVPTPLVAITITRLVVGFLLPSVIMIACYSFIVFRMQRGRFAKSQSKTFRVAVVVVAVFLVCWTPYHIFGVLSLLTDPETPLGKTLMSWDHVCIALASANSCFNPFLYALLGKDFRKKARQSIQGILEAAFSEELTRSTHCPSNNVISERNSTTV

WT HRH3 = WT HRH3 (Homo sapiens, UniProt Q9Y5N1); settings: HEK293T
Sequence of WT HRH3 (Q9Y5N1 1-453 isoform Q9Y5N1-2): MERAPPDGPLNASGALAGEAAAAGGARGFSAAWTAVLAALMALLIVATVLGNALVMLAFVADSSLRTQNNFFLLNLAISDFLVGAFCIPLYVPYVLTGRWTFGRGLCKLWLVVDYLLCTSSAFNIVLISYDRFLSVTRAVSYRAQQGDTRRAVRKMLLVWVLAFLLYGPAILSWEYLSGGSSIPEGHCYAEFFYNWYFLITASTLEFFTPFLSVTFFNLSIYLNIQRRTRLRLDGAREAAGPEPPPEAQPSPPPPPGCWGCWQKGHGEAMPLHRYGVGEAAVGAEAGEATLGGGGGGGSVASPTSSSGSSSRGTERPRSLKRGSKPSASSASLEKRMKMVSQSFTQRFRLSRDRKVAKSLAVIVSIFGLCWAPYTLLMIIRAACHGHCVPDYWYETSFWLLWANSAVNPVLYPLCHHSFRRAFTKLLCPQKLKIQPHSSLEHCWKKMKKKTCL

ΔPDZ HRH3 = ΔPDZ HRH3 (Homo sapiens, UniProt Q9Y5N1); settings: HEK293T
Sequence of ΔPDZ HRH3 (Q9Y5N1 1-449 isoform Q9Y5N1-2): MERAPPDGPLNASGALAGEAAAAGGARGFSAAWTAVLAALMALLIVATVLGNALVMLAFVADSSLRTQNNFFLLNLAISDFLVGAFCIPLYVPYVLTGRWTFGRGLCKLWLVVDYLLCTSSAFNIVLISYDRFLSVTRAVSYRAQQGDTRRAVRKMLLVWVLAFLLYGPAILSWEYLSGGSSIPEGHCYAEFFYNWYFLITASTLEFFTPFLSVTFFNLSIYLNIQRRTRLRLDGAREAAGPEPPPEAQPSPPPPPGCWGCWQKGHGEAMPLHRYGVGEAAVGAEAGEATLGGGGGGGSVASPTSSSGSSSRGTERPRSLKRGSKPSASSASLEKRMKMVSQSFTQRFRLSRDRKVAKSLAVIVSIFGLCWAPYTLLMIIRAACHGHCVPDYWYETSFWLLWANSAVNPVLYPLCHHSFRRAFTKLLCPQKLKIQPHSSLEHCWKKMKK

ΔPDZ S1PR2 = ΔPDZ S1PR2 (Homo sapiens, UniProt O95136); test: Label-free DMR agonist response, HEK293T expressing ΔPDZ S1PR2; type: cell-based
Sequence of ΔPDZ S1PR2 (O95136 1-349 limits assumed, stated change not applied): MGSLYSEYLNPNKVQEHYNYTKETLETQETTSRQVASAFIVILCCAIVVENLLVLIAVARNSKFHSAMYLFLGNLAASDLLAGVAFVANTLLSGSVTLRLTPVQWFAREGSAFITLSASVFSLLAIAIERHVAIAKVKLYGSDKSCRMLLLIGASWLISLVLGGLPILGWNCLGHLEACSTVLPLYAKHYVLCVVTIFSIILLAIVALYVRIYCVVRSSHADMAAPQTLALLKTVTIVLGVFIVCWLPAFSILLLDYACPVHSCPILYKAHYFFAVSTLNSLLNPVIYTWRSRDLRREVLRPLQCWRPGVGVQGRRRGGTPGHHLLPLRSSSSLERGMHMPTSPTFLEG

WT S1PR2 = WT S1PR2 (Homo sapiens, UniProt O95136); test: Label-free DMR agonist response, HEK293T expressing WT S1PR2; type: cell-based
Sequence of WT S1PR2 (O95136 whole entry): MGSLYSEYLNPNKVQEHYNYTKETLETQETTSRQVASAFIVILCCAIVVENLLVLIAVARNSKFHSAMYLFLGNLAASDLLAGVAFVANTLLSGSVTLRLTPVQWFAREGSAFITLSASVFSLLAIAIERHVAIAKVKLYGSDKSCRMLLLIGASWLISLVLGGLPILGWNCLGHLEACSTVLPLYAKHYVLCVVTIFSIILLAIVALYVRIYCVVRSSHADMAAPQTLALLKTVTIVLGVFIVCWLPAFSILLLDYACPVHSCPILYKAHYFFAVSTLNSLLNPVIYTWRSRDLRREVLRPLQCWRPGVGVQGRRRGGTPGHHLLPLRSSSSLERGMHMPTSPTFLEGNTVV

Sequence of ΔPDZ C3AR1 (Q16581 1-478 limits assumed, stated change not applied): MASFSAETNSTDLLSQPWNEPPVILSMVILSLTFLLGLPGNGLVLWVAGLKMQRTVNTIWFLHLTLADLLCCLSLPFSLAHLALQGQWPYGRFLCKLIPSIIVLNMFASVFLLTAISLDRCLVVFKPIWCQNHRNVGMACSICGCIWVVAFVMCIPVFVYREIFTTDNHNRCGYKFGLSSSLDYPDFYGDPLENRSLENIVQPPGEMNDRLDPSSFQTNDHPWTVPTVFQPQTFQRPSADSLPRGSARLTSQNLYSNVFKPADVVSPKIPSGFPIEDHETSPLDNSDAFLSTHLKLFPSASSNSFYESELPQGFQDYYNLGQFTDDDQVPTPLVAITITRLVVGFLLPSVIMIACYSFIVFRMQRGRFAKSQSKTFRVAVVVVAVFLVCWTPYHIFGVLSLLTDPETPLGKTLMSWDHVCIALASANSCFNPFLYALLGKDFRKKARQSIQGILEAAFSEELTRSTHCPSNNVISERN

Compound: NC(=O)Cc1ccccc1 [Benzeneacetamide, benzeneacetamide]
ΔPDZ Max (DMR) (ΔPDZ C3AR1; ΔPDZ C3AR1, maximal agonist DMR response): 38.77 ± 2.59 | ΔPDZ TTP (ΔPDZ C3AR1; ΔPDZ C3AR1, time to peak DMR): 3.50 s | WT Max (DMR) (WT C3AR1; WT C3AR1, maximal agonist DMR response): 36.90 ± 1.82 | WT TTP (WT C3AR1; WT C3AR1, time to peak DMR): 4.50 s

WT Max (DMR) (WT HRH3; WT HRH3, maximal agonist DMR response): 46.97 ± 3.71 | WT TTP (WT HRH3; WT HRH3, time to peak DMR): 7.30 s | ΔPDZ Max (DMR) (ΔPDZ HRH3; ΔPDZ HRH3, maximal agonist DMR response): 60.19 ± 5.07 | ΔPDZ TTP (ΔPDZ HRH3; ΔPDZ HRH3, time to peak DMR): 6.30 s
Compound: NCCc1c[nH]cn1 [Histamine, histamine dihydrochloride]

ΔPDZ Max (DMR) (ΔPDZ S1PR2; ΔPDZ S1PR2, maximal agonist DMR response): −10.16 ± 4.91 | ΔPDZ TTP (ΔPDZ S1PR2; ΔPDZ S1PR2, time to peak DMR): 16.31 s | WT Max (DMR) (WT S1PR2; WT S1PR2, maximal agonist DMR response): −40.54 ± 3.76 | WT TTP (WT S1PR2; WT S1PR2, time to peak DMR): 17.61 s
Compound: CCCCCCCCCCCCC/C=C/[C@@H](O)[C@@H](N)COP(=O)(O)O [Sphingosine-1-phosphate, sphingosine-1-phosphate]
